The values below come from patent publication US20100119599A1 (ARCHER PHARMACEUTICALS, INC., priority 2006, published 2010).

SMILES strings stand for the structures.

For one assay, the system named is Aβ1-40. Put plainly: Measurement of Aβ1-40 in culture medium of 7W WT APP751 CHO cells by ELISA. It counts as cell-based, Chinese hamster. To be noted: for activity at 5 µM: Cricetulus griseus, Table 1, 5 μM test compound, CHO cells stably transfected with human APP751, culture medium, ELISA, control DMSO, 0 = no detectable amount; for Aβ1-40 (% of control): CHO cells that overexpress APP751, zero = below the detection limit of the assay.

In a further assay the test system is Aβ1-42. Put plainly: Measurement of Aβ1-42 in culture medium of 7W WT APP751 CHO cells by ELISA. In kind it is cell-based, Chinese hamster. The conditions noted are these: for activity at 5 µM: Cricetulus griseus, Table 1, 5 μM test compound, CHO cells stably transfected with human APP751, culture medium, ELISA, control DMSO, 0 = no detectable amount, read-out: Aβ1-42 (% of control); for Aβ1-42 (% of control): CHO cells that overexpress APP751, zero = below the detection limit of the assay. Background: An ELISA detects its analyte on a solid surface through an enzyme-linked reagent.
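Further: 5 µM test compound but RI-coded compounds at 10 µM for 24 hours.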

`CCCOC(=O)C1=C(C)NC2=C(C(=O)CC(c3ccc(Cl)cc3)C2)C1c1ccc(Cl)c(Cl)c1` (stereo not drawn) [ST017183, propyl 4-(3,4-dichlorophenyl)-7-(4-chlorophenyl)-2-methyl-5-oxo-1,4,6,7,8-pentahydroquinoline-3-carboxylate]: the activity at 5 µM with Aβ1-40 stood at 50.1%; in the assay with Aβ1-42 it was 67.9%.

As for `CC1=C(C(=O)OCCc2ccccc2)C(c2ccc(Cl)c(Cl)c2)C2=C(CCCC2=O)N1` (stereo not drawn) [ST015098, 2-phenylethyl 4-(3,4-dichlorophenyl)-2-methyl-5-oxo-1,4,6,7,8-pentahydroquinoline-3-carboxylate], the activity at 5 µM was found to be 40.9% with Aβ1-40 and 0% with Aβ1-42.

Take `CCCOC(=O)C1=C(C)NC2=C(C(=O)CC(C)(C)C2)C1c1ccc(OC)cc1OC` (stereo not drawn) [ST017226, propyl 4-(2,4-dimethoxyphenyl)-2,7,7-trimethyl-5-oxo-1,4,6,7,8-pentahydroquinoline-3-carboxylate]: the activity at 5 µM came out at 23.6% with Aβ1-40 and 26.5% with Aβ1-42.

In the case of `CC1=C(C(=O)Nc2ccccc2)C(c2ccsc2)C(C#N)=C(SCC(=O)Nc2cccc(C)c2)N1` (stereo not drawn) [RI_39], the “Aβ1-40 (% of control)” value in the assay with Aβ1-40 was 72 % of control. For the same compound, the “Aβ1-42 (% of control)” value with Aβ1-42 is 72 % of control.

With `COc1ccc(C2C(C(=O)OC3CCCC3)=C(C)NC3=C2C(=O)CC(C)(C)C3)c(OC)c1OC` (stereo not drawn) [ST013328, cyclopentyl 2,7,7-trimethyl-5-oxo-4-(2,3,4-trimethoxyphenyl)-1,4,6,7,8-pentahydroquinoline-3-carboxylate], the activity at 5 µM with Aβ1-40 came to 43.1%; with Aβ1-42 it was 93.4%.

Consider `CC1=C(C(=O)Nc2ccccc2)C(c2cccs2)C(C#N)=C(SCC(=O)Nc2ccc(F)cc2)N1` (stereo not drawn) [RI_76], for which the “Aβ1-40 (% of control)” value in the assay on Aβ1-40 was 46.2 % of control. In the assay with Aβ1-42, the “Aβ1-42 (% of control)” value is 54.6 % of control.

As to `COC(=O)C1=CN(Cc2ccc3c(c2)OCO3)C=C(C(=O)OC)C1c1cccs1` [ST038112, methyl 1-(2H-benzo[3,4-d]1,3-dioxolen-5-ylmethyl)-5-(methoxycarbonyl)-4-(2-thienyl)-1,4-dihydropyridine-3-carboxylate], the “Aβ1-40 (% of control)” value in the assay with Aβ1-40 is on record as 47.7 % of control. Further, the “Aβ1-42 (% of control)” value in the assay on Aβ1-42 is 99.52 % of control.

With `CCc1ccc(C2C(C(=O)OC)=CNC=C2C(=O)OC)cc1` [ST052274, methyl 4-(4-ethylphenyl)-5-(methoxycarbonyl)-1,4-dihydropyridine-3-carboxylate], in the assay with Aβ1-40, the “Aβ1-40 (% of control)” value was 4.952 % of control. In addition, the “Aβ1-42 (% of control)” value with Aβ1-42 is given as 0 % of control.

For `CCC(C)OC(=O)C1=C(C)NC2=C(C(=O)CC(c3ccccc3)C2)C1c1ccc(Cl)c(Cl)c1` (stereo not drawn) [ST017319, methylpropyl 4-(3,4-dichlorophenyl)-2-methyl-5-oxo-7-phenyl-1,4,6,7,8-pentahydroquinoline-3-carboxylate], the activity at 5 µM with Aβ1-40 came to 26.8%; with Aβ1-42 it was 97.5%.

Turning to `COC(=O)C1=C(C)NC(C)=C(C(=O)OC)C1c1cc(-c2ccc(Cl)cc2Cl)co1` [ST045410, methyl 4-[4-(2,4-dichlorophenyl)(2-furyl)]-5-(methoxycarbonyl)-2,6-dimethyl-1,4-dihydropyridine-3-carboxylate], the “Aβ1-40 (% of control)” value in the assay with Aβ1-40 was 75.13 % of control. Further, the “Aβ1-42 (% of control)” value in the assay with Aβ1-42 is reported as 69.44 % of control.

With `COC(=O)C1=C(C)NC2=C(C(=O)CC(c3cccs3)C2)C1c1ccc(C)s1` (stereo not drawn) [ST052308, methyl 2-methyl-4-(5-methyl(2-thienyl))-5-oxo-7-(2-thienyl)-1,4,6,7,8-pentahydroquinoline-3-carboxylate], the figures for the activity at 5 µM in the assay on Aβ1-40 and in the assay on Aβ1-42 were 48.4% and 74.2%, respectively.

As to `CC1=C(C(=O)OC2CCCCCC2)C(c2cccc(Br)c2)C2=C(CC(C)(C)CC2=O)N1` (stereo not drawn) [ST024487, cycloheptyl 4-(3-bromophenyl)-2,7,7-trimethyl-5-oxo-1,4,6,7,8-pentahydroquinoline-3-carboxylate], the values for the activity at 5 µM in the assay with Aβ1-40 and with Aβ1-42 were 5.07% and 3.77%, respectively.
